In US20130096159A1, “INHIBITORS OF HUMAN 12-LIPOXYGENASE” (The United States of America, as represented the Secretary …, priority 2010, published 2013):

Assays:
[1] = in vivo PK, IP administration in CD1 mice; conditions: IP 30 mg/kg
[2] = PBS buffer stability; assay type: physicochemical
[3] = target: T1, human 12-lipoxygenase (Homo sapiens, UniProt P18054); experiment: human 12-lipoxygenase inhibition (12hLO) assay, absorbance at 234 nm; assay type: biochemical
T1 sequence (P18054 1-663): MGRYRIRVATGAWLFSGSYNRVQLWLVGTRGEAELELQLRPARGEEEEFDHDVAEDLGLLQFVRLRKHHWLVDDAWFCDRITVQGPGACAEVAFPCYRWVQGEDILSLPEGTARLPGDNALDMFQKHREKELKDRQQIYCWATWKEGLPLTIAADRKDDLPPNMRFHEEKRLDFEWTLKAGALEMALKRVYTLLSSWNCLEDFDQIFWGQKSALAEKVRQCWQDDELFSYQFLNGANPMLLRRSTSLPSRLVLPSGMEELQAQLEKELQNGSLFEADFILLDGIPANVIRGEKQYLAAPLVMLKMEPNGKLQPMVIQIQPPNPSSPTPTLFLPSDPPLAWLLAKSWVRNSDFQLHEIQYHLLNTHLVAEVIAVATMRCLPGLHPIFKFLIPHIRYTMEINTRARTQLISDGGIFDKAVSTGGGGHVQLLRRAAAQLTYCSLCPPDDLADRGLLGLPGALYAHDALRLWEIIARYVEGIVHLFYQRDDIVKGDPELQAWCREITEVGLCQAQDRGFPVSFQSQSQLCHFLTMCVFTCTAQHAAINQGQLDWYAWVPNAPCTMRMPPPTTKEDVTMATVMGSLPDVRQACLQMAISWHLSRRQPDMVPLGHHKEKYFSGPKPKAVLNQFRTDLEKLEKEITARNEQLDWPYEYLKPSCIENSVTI

[4] = aqueous kinetic solubility; assay type: physicochemical
[5] = mouse plasma stability; assay type: in vitro ADME
[6] = mouse liver microsome stability; assay type: in vitro ADME; conditions: liver microsomes, read-out: mouse liver microsome stability (T1/2)
[7] = system: Caco-2; experiment: Caco-2 permeability; assay type: in vitro ADME
[8] = target: T2, human 5-lipoxygenase (Homo sapiens, UniProt P09917); experiment: 5hLO inhibition screen; assay type: biochemical; conditions: Table 2
T2 sequence (P09917 1-674): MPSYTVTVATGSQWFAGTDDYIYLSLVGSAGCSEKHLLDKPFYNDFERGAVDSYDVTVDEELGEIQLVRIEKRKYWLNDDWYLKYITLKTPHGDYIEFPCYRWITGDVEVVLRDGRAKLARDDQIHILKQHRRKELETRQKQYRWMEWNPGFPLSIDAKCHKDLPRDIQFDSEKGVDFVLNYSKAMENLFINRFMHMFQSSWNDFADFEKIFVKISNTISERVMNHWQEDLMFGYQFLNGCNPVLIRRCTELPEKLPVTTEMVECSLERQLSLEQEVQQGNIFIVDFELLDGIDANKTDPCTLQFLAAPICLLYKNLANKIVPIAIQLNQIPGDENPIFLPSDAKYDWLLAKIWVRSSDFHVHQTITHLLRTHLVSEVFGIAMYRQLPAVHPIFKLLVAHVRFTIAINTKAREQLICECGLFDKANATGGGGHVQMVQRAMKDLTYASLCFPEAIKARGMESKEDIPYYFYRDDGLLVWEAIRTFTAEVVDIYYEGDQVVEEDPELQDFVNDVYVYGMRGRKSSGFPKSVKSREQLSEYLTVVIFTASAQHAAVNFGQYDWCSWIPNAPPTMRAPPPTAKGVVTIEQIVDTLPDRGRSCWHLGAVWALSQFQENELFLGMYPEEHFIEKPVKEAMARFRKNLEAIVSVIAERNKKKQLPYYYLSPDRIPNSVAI

[9] = target: T3, human 15-lipoxygenase-2 (Homo sapiens, UniProt O15296); experiment: 15hLO-2 inhibition screen; assay type: biochemical; conditions: Table 2
T3 sequence (O15296 1-676): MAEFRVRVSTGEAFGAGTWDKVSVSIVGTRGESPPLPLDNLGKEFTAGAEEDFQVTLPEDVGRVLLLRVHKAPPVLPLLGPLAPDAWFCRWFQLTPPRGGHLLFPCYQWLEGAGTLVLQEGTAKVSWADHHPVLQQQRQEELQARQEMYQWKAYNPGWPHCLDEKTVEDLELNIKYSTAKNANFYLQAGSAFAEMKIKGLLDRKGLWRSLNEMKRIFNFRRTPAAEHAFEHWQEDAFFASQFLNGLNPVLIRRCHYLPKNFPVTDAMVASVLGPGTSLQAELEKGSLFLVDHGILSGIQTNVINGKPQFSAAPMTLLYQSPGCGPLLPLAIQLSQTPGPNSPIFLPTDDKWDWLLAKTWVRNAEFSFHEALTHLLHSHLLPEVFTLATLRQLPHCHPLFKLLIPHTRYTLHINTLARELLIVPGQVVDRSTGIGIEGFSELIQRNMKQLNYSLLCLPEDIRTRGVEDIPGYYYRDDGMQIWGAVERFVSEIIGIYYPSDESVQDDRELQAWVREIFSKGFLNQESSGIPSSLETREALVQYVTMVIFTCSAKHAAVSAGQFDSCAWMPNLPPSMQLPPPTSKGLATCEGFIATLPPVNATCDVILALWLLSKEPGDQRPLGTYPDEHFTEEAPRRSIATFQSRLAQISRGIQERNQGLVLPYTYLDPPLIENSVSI

[10] = system: Human islets; experiment: gene expression in cytokine-stimulated human islets, Taqman real time PCR; assay type: cell-based; conditions: TNF-α
Description: Human islets were incubated for 22 hours following stimulation with the inflammatory cytokines IFN-γ, TNF-α, and IL-1-β alone or in the presence of compound 1 or compound 9. Control islets were incubated for 22 hours in the absence of inflammatory cytokines or compounds. Following the incubation, gene expression for 12-LO, 15-LO, 5-LO, IL-12p40, and IFN-γ were determined using Taqman real time PCR.

[11] = target: T4, recombinant human cPLA2 (Homo sapiens, UniProt P47712); experiment: cPLA2 enzymatic activity assay; assay type: biochemical; conditions: 5 min of incubation, FIG. 8
T4 sequence (P47712 1-749): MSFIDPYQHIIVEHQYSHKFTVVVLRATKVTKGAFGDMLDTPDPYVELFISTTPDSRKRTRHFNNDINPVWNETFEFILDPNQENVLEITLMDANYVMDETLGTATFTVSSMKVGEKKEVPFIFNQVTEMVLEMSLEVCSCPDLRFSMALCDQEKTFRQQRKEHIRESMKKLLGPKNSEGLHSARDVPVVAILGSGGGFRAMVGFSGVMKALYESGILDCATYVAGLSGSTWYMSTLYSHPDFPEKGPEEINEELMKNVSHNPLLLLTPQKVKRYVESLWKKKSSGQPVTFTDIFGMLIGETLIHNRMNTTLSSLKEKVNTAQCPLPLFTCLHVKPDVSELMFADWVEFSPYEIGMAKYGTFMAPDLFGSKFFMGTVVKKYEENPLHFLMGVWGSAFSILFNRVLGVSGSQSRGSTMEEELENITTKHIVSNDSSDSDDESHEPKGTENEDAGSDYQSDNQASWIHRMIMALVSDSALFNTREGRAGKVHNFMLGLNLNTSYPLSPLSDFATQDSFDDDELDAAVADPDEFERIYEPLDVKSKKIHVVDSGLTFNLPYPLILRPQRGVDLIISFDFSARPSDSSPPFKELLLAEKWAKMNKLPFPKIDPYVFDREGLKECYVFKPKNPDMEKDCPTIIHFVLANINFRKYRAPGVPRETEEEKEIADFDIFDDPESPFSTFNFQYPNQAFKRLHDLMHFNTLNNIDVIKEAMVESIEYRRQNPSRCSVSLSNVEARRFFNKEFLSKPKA
Description: A., et al., Biochemistry, 2011, 50: 1731-1738 with the following differences. The inhibitors in solution in DMSO were added at a final concentration of 50 μM right before the recombinant enzyme was added to initiate the reaction. After 5 min of incubation, the products of reaction were analyzed, and the results depicted in FIG. 8.

[12] = relative to control islets, IFN-γ, IL-1-β stimulation, 22 hours

CC(=O)NC(c1cccs1)c1cc(Br)c2cccnc2c1O (single isomer, unassigned) [Compound 36, N-((5-bromo-8-hydroxyquinolin-7-yl)(thiophen-2-yl)methyl)acetamide]
crossing of the blood-brain barrier [1]: does not efficiently cross the blood-brain barrier
t1/2 (h) (brain) ([1]; brain): 1.7 h
t1/2 (h) (plasma) ([1]; plasma): 3.5 h
tmax (h) [plasma] ([1]; plasma): 0.25 h
Tmax ([1]; mouse, brain): 30 min
Kp at 24 h ([1]; mouse, brain/plasma, average [b/p] ratio over 8 time points (24 h period)): 0.01
stability in PBS buffer (in words) [2]: excellent
PBS-pH 7.4 stability: % remaining after 48 h ([2]; PBS pH 7.4, 48 h): 100%
times more potent as an inhibitor of 12-lipoxygenase than the dextrorotatory enantiomer ([3]; levorotatory vs dextrorotatory enantiomer): more than 58 times
aqueous kinetic solubility (in words) [4]: acceptable
stability in mouse plasma (in words) [5]: excellent
half-life [6]: < 10 min
cell permeability (in words) [7]: good
Caco-2 (Papp 10^−6 m/s @ pH 7.4) ([7]; pH 7.4): 8.8 10^−6 m/s
IC50 [8]: > 250 µM

CCC(=O)NC(c1ccco1)c1cc(Cl)c2cccnc2c1O (stereo not drawn) [Compound 9, N-((5-chloro-8-hydroxyquinolin-7-yl)(furan-2-yl)methyl)propionamide]
selectivity for inhibition of human 12-lipoxygenase as compared with human 5-lipoxygenase, 15-lipoxygenase-1 and 15-lipoxygenase-2 [3]: exhibited selectivity
IC50 ([3]; 12hLO Inhibition, Table 1, read-out: IC50 (μM) [± SD μM]): 1 µM
IC50 [9]: > 150 µM
IC50 [8]: > 150 µM
reduction in IFN-γ expression ([10]; induced by IFN-γ, IL-1-β): 4 fold
reduction in IL-12p40 mRNA expression ([10]; induced by IFN-γ, IL-1-β): 40 fold
Change in Gene Expression 5-LO [10, 12]: 1
Change in Gene Expression 12-LO [10, 12]: 12
Change in Gene Expression 15-LO [10, 12]: 4
Change in Gene Expression IFN-γ [10, 12]: 4
Change in Gene Expression IL-12p40 [10, 12]: 3

O=c1cc(-c2ccccc2)oc2cc(O)c(O)c(O)c12 [baicalein, reference compound]
inhibition at 50 µM [11]: ~60%
